Source: PMC3314994, “Inhibitors of human histone deacetylase with potent activity against the African trypanosome Trypanosoma brucei” (Bioorganic & Medicinal Chemistry Letters, 2012)

Tests used:
Trypanosoma brucei (BSF) = assay: Growth inhibition of cultured bloodstream form T. brucei; format: cell-based, Trypanosoma brucei (strain 427); conditions: Trypanosoma brucei, cultured bloodstream form, strain 427, triplicate; for IC50: read-out: Trypanosoma brucei (BSF) IC50 ± SD; for IC90: read-out: Trypanosoma brucei (BSF) IC90 ± SD
Protocol: Treatment of parasites with micromolar levels of these inhibitors could result in cell death within 4 h (Fig. 1).
[30] Growth inhibitory properties against cultured bloodstream form T. brucei were determined as described previously.[29] Experiments were performed in triplicate and data are presented as ±SD.

HDAC (FDL_HELA) = assay: Histone deacetylase activity in HeLa cell lysates (fluorescent assay kit); format: biochemical, Human; conditions: lysed HeLa cells; read-out: HDAC (FDL_HELA) IC50 ± SD
Protocol: (§1) The compounds from the different structural subclasses were all active as HDAC inhibitors, measured in an assay of enzymes in HeLa cell lysates.[23,24] HeLa cells express multiple HDACs, including HDAC 1, 2, 3, 4, and 8.[25–27] […] To further characterise the compounds with respect to HDAC selectivity, we determined their inhibitory properties against recombinant expressed human HDACs (rhHDAC 1–4, 6–9).[28]
[24] Histone deacetylase activity was determined in lysed Human cervix epithelial cancer HeLa cells. To determine the IC50 of test compound a commercially available fluorescent assay kit was used employing an acetylated enzyme substrate.[23]

rhHDAC 2 = rhHDAC 2 (Homo sapiens, UniProt Q92769); assay: Inhibition of recombinant human HDAC isoforms; format: biochemical; conditions: mean ± SD, triplicate per plate, min two plates; read-out: ED50 rhHDAC 2
Source text: as §1

rhHDAC 3 = rhHDAC 3 (Homo sapiens, UniProt O15379); assay: Inhibition of recombinant human HDAC isoforms; format: biochemical; conditions: mean ± SD, triplicate per plate, min two plates; read-out: ED50 rhHDAC 3
Source text: as §1

rhHDAC 6 = biological target: T1, rhHDAC 6 (Homo sapiens, UniProt Q9UBN7); assay: Inhibition of recombinant human HDAC isoforms; format: biochemical; conditions: mean ± SD, triplicate per plate, min two plates; read-out: ED50 rhHDAC 6
T1 sequence (Q9UBN7 1-1215): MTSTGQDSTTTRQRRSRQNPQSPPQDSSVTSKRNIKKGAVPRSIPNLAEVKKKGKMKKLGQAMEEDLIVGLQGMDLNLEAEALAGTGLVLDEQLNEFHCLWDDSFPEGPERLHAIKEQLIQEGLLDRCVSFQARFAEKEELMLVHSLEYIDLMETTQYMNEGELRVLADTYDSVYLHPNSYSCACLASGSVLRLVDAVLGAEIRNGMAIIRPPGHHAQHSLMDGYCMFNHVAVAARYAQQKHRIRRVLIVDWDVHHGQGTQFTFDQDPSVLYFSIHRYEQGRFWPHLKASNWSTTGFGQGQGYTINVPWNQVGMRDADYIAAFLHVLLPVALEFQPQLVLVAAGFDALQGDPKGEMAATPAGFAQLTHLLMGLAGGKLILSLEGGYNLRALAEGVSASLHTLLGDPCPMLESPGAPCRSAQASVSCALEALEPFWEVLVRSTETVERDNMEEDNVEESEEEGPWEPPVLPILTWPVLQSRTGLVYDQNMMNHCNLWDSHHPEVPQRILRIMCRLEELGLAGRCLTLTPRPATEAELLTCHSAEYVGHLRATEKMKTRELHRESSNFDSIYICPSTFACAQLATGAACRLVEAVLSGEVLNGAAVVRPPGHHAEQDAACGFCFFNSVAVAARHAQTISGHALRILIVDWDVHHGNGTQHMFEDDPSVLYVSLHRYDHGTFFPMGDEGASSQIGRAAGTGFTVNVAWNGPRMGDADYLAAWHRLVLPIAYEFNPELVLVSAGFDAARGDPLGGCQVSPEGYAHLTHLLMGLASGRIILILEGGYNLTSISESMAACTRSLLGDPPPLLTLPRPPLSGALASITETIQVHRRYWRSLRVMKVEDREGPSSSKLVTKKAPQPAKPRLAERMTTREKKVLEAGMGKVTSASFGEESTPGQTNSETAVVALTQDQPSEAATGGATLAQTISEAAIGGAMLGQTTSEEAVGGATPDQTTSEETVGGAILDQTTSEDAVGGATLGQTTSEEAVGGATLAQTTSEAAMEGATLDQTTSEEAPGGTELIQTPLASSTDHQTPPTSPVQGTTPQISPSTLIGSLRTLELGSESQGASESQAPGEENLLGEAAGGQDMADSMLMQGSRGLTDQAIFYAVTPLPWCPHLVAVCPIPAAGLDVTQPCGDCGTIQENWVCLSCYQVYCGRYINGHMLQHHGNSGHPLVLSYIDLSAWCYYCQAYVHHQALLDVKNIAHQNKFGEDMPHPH
Source text: as §1

rhHDAC 7 = biological target: T2, rhHDAC 7 (Homo sapiens, UniProt Q8WUI4); assay: Inhibition of recombinant human HDAC isoforms; format: biochemical; conditions: mean ± SD, triplicate per plate, min two plates; read-out: ED50 rhHDAC 7
T2 sequence (Q8WUI4 1-952): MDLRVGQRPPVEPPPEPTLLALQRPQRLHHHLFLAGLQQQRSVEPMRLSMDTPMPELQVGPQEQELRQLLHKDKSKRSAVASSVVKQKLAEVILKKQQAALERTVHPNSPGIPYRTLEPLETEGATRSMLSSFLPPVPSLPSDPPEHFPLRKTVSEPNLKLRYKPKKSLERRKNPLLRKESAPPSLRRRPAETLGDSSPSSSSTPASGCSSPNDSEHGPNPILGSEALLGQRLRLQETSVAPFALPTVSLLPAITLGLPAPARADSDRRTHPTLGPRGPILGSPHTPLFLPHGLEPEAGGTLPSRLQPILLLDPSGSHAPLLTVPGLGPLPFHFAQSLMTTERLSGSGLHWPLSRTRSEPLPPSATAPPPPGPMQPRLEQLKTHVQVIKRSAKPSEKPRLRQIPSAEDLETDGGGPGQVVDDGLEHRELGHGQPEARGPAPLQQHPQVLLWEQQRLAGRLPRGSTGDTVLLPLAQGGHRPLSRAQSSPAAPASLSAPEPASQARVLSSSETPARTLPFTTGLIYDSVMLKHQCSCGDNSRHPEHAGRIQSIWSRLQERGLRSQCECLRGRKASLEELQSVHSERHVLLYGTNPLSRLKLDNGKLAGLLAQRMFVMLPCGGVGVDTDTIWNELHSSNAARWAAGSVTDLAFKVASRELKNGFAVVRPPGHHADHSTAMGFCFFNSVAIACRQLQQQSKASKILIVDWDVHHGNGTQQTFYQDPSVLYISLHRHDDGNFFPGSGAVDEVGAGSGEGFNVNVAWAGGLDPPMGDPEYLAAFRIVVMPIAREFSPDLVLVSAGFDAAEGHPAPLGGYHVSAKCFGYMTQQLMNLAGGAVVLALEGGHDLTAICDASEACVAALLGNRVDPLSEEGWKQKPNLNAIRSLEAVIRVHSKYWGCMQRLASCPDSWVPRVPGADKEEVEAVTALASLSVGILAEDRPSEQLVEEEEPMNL
Source text: as §1

rhHDAC 8 = biological target: T3, rhHDAC 8 (Homo sapiens, UniProt Q9BY41); assay: Inhibition of recombinant human HDAC isoforms; format: biochemical; conditions: mean ± SD, triplicate per plate, min two plates; read-out: ED50 rhHDAC 8
T3 sequence (Q9BY41 1-377): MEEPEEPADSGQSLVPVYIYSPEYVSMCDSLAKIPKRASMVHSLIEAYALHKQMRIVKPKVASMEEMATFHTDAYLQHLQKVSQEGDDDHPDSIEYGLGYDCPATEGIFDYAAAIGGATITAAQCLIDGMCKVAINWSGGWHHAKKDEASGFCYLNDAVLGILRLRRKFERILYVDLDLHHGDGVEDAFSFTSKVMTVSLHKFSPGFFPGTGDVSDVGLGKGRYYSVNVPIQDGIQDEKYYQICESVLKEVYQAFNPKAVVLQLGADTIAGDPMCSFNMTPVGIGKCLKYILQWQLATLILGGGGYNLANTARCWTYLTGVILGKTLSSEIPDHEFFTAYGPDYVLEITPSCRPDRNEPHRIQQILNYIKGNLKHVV
Source text: as §1

rhHDAC 9 = rhHDAC 9 (Homo sapiens, UniProt Q9UKV0); assay: Inhibition of recombinant human HDAC isoforms; format: biochemical; conditions: mean ± SD, triplicate per plate, min two plates; read-out: ED50 rhHDAC 9
Source text: as §1

rhHDAC 1 = rhHDAC 1 (Homo sapiens, UniProt Q13547); assay: Inhibition of recombinant human HDAC isoforms; format: biochemical; conditions: mean ± SD, triplicate per plate, min two plates; read-out: ED50 rhHDAC 1
Source text: as §1

rhHDAC 4 = rhHDAC 4 (Homo sapiens, UniProt P56524); assay: Inhibition of recombinant human HDAC isoforms; format: biochemical; conditions: mean ± SD, triplicate per plate, min two plates; read-out: ED50 rhHDAC 4
Source text: as §1

Sequence of rhHDAC 9 (Q9UKV0 whole entry, canonical isoform): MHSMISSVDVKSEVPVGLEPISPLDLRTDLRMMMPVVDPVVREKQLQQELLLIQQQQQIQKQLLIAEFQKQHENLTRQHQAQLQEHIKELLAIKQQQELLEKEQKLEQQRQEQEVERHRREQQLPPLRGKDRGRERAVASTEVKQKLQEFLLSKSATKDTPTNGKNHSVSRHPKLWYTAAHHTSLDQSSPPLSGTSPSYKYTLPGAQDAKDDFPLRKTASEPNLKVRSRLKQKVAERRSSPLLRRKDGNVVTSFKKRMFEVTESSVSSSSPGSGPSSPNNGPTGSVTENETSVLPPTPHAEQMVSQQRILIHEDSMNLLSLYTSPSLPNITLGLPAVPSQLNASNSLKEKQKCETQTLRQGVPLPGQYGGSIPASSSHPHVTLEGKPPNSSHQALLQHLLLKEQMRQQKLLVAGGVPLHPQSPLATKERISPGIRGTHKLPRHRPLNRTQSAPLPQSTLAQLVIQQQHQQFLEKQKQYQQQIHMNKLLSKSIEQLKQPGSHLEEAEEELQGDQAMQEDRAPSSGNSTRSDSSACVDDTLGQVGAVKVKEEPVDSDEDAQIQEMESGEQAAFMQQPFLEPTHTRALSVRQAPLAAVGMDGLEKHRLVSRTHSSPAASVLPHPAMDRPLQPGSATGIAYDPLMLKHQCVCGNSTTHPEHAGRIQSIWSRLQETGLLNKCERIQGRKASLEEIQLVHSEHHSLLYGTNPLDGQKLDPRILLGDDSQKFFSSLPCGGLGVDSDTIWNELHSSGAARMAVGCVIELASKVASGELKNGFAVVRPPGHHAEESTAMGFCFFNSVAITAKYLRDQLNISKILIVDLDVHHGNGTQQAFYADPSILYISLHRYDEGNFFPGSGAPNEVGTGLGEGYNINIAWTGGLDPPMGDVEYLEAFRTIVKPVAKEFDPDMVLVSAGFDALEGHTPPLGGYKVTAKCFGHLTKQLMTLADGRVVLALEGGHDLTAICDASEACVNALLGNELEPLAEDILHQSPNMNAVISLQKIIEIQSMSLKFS
Sequence of rhHDAC 2 (Q92769 whole entry, canonical isoform): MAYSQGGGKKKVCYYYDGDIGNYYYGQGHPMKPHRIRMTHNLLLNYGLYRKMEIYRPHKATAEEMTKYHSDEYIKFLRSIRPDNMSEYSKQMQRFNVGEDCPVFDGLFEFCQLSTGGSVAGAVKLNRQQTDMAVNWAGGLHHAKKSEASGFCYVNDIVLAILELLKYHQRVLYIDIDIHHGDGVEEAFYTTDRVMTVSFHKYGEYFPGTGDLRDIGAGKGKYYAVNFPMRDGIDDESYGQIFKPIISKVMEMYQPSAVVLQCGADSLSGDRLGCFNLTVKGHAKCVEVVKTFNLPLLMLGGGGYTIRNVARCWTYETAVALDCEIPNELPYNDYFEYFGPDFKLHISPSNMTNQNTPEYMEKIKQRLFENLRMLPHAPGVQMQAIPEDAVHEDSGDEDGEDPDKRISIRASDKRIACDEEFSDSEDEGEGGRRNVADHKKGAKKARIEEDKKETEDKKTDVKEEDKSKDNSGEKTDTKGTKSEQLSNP
Sequence of rhHDAC 3 (O15379 whole entry, canonical isoform): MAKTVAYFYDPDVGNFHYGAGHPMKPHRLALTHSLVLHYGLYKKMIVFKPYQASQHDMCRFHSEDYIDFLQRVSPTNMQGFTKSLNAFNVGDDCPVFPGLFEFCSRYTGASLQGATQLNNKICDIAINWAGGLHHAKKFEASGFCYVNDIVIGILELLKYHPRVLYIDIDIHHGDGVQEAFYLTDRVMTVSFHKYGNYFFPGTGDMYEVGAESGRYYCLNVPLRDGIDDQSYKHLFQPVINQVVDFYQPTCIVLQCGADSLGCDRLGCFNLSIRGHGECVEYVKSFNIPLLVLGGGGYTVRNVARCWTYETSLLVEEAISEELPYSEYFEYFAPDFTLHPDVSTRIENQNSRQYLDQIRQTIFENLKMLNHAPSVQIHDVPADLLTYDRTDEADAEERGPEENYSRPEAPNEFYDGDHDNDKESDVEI
Sequence of rhHDAC 3 (Q9Y618 395-489 partner limits assumed): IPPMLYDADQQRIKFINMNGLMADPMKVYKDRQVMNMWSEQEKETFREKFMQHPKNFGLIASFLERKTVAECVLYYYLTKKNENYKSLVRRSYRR
Sequence of rhHDAC 4 (P56524 whole entry, canonical isoform): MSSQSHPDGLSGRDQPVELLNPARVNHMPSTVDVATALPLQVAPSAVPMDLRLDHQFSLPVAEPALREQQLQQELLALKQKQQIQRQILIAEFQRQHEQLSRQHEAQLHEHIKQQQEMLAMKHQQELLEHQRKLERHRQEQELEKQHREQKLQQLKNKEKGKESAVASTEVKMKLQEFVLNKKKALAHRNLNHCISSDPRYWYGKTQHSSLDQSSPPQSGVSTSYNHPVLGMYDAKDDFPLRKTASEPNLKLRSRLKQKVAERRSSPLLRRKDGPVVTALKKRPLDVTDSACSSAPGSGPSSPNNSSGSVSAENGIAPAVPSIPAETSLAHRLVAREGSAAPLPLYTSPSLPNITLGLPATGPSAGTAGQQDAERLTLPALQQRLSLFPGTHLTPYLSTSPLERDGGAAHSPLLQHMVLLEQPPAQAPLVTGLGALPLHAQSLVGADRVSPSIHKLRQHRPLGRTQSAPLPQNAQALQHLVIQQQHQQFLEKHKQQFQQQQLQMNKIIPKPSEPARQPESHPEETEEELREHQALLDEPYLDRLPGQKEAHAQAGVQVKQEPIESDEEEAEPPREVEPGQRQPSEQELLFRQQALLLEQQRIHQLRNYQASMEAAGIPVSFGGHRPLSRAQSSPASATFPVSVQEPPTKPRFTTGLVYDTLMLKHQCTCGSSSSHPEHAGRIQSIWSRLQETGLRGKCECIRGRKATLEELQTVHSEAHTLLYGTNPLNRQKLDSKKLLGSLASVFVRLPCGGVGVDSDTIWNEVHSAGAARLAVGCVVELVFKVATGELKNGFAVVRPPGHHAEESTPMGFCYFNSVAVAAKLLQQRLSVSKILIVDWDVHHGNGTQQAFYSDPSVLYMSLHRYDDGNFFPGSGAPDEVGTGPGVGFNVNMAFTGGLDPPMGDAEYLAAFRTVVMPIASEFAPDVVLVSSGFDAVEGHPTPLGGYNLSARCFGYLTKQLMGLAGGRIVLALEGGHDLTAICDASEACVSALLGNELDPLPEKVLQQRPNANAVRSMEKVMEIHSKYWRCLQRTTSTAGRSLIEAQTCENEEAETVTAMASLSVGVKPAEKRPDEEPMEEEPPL
Sequence of rhHDAC 1 (Q13547 whole entry, canonical isoform): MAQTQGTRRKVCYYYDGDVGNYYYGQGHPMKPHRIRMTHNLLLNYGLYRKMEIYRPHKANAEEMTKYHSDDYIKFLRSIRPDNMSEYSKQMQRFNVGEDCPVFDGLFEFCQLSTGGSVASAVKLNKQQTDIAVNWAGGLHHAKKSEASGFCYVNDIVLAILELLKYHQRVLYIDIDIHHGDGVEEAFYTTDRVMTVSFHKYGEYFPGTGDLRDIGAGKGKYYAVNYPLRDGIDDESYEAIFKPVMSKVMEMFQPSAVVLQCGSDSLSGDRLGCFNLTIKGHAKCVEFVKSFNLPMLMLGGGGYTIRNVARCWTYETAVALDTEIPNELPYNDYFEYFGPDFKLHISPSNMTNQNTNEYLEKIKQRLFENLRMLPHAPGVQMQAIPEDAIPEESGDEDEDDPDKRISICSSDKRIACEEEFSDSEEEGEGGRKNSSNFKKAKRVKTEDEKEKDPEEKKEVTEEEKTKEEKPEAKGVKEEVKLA

SMILES | IC50 (Trypanosoma brucei (BSF)) [µM] | IC90 (Trypanosoma brucei (BSF)) [µM] | IC50 (HDAC (FDL_HELA)) [µM] | IC50 (rhHDAC 2) [µM] | IC50 (rhHDAC 3) [µM] | IC50 (rhHDAC 6) [µM] | IC50 (rhHDAC 7) [µM] | IC50 (rhHDAC 8) [µM] | IC50 (rhHDAC 9) [µM] | IC50 (rhHDAC 1) [µM] | IC50 (rhHDAC 4) [µM]
O=C(/C=C/c1cccc(S(=O)(=O)N2CCN(c3ncccn3)CC2)c1)NO [Compound 1] | 0.034 ± 0.002 | 0.066 ± 0.004 | 0.084 ± 0.053 |  |  |  |  |  |  |  | 
O=C(/C=C/c1cccc(S(=O)(=O)N2CCN(c3ccc(Cl)cc3)CC2)c1)NO [Compound 2] | 0.064 ± 0.005 | 0.13 ± 0.005 | 0.149 ± 0.006 |  |  |  |  |  |  |  | 
O=C(/C=C/c1cccc(S(=O)(=O)N2CCN(c3ccccn3)CC2)c1)NO [Compound 3] | 0.086 ± 0.009 | 0.201 ± 0.005 | 0.123 ± 0.076 | 0.055 ± 0.006 | 0.0028 ± 0.0004 | 0.179 ± 0.115 | 0.1 ± 0.097 | 0.581 ± 0.334 | 0.086 ± 0.061 |  | 
O=C(/C=C/c1cccc(S(=O)(=O)N2CCN(c3cccc(Cl)c3)CC2)c1)NO [Compound 4] | 0.123 ± 0.006 | 0.169 ± 0.008 | 0.187 ± 0.082 |  |  |  |  |  |  |  | 
O=C(/C=C/c1cccc(S(=O)(=O)Nc2ccc(OC(F)(F)F)cc2)c1)NO [Compound 5] | 0.137 ± 0.007 | 0.22 ± 0.007 |  |  |  |  |  |  |  |  | 
O=C(/C=C/c1cccc(S(=O)(=O)N2CCN(c3ccccc3F)CC2)c1)NO [Compound 6] | 0.141 ± 0.009 | 0.224 ± 0.014 | 0.191 ± 0.036 |  |  |  |  |  |  |  | 
O=C(/C=C/c1cccc(S(=O)(=O)N2CCN(c3ccccc3Cl)CC2)c1)NO [Compound 7] | 0.154 ± 0.013 | 0.281 ± 0.019 | 0.068 ± 0.036 |  |  |  |  |  |  |  | 
O=C(/C=C/c1cccc(S(=O)(=O)Nc2ccc(OC(F)F)cc2)c1)NO [Compound 8] | 0.154 ± 0.013 | 0.306 ± 0.061 | 0.01 ± 0.002 |  |  |  |  |  |  |  | 
COc1ccc2nc(/C=C/C(=O)NO)ccc2c1 [Compound 9] | 0.155 ± 0.018 | 0.31 ± 0.04 | 0.028 ± 0.004 |  |  |  |  |  |  |  | 
COc1ccc(N2CCN(S(=O)(=O)c3cccc(/C=C/C(=O)NO)c3)CC2)cc1 [Compound 10] | 0.156 ± 0.003 | 0.224 ± 0.003 | 0.212 ± 0.112 | 0.036 ± 0.0007 | 0.295 ± 0.29 | 0.107 ± 0.013 |  | 0.955 ± 0.166 | 1.18 | 0.076 ± 0.006 | 0.87
O=C(/C=C/c1cccc(S(=O)(=O)N2CCN(c3ccccc3)CC2)c1)NO [Compound 11] | 0.167 ± 0.012 | 0.228 ± 0.002 | 0.132 ± 0.103 |  |  |  |  |  |  |  | 
